Assay results taken from patent US20250221410A1, “SUBSTITUTED 2-C-AZINES AND SALTS THEREOF, AND USE THEREOF AS HERBICIDAL ACTIVE SUBSTANCES” (BAYER AKTIENGESELLSCHAFT, priority 2022, published 2025).

How the values were obtained:
Type in all cases: in vivo
[1] = tested on: AMARE: Amaranthus retroflexus; experiment: Post-emergence herbicidal efficacy at 80 g/ha, AMARE; conditions: visual rating about 3 weeks after treatment vs untreated controls
Protocol: (§1) Seeds of monocotyledonous and dicotyledonous weeds and crop plants were placed in sandy loam in plastic or organic planting pots, covered with soil and cultivated in a greenhouse under controlled growth conditions. 2 to 3 weeks after sowing, the test plants were treated at the one-leaf stage. The compounds of the invention, formulated in the form of wettable powders (WP) or as emulsion concentrates (EC), were then sprayed onto the green parts of the plants as aqueous suspension or emulsion with addition of 0.5% additive at a water application rate of 600 l/ha (converted). After the test plants had been kept in the greenhouse under optimum growth conditions for about 3 weeks, the activity of the preparations was rated visually in comparison to untreated controls. For example, 100% activity=the plants have died, 0% activity=like control plants. Tables B1 to B10 below show the effects of selected compounds of the general formula (I) according to Table 1 on various harmful plants and an application rate corresponding to 80 g/ha, which were obtained by the experimental procedure mentioned above.

VERPE: Veronica persica [2] = experiment: Post-emergence herbicidal efficacy at 80 g/ha, VERPE; conditions: visual rating about 3 weeks after treatment vs untreated controls
Protocol: as §1

[3] = tested on: MATIN: Matricaria inodora; experiment: Pre-emergence herbicide efficacy at 1280 g/ha, MATIN; conditions: visual scoring after about 3 weeks vs untreated controls
Description: Seeds of mono- and dicotyledonous weed plants were placed in plastic pots in sandy loam soil (doubly sown with one species each of mono- or dicotyledonous weed plants per pot) and covered with soil. The compounds of the invention, formulated in the form of wettable powders (WP) or as emulsion concentrates (EC), were then applied to the surface of the covering soil as aqueous suspension or emulsion with addition of 0.5% additive at a water application rate of 600 litres per hectare (converted). After the treatment, the pots were placed in a greenhouse and kept under good growth conditions for the test plants. After about 3 weeks, the efficacy of the preparations was scored visually in comparison with untreated controls as percentages. For example, 100% activity=the plants have died, 0% activity=like control plants. Tables C1 to C12 below show the effects of selected compounds of the general formula (I) according to Table 1 on various harmful plants and at an application rate corresponding to 1280 g/ha, which were obtained by the trial procedure specified above.

VERPE: Veronica persica [4] = experiment: Pre-emergence herbicide efficacy at 1280 g/ha, VERPE; conditions: visual scoring vs untreated controls
Procedure, shortened: (§2)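 Seeds sown in sandy loam in pots and covered; compounds as WP or EC applied to covering soil surface as aqueous suspension/emulsion with 0.5% additive at 600 L/ha water. Greenhouse growth ~3 weeks, then visual % efficacy vs untreated controls (100% = plants dead, 0% = like control).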

[5] = tested on: DIGSA: Digitaria sanguinalis; experiment: Pre-emergence herbicide efficacy at 1280 g/ha, DIGSA; conditions: visual scoring after about 3 weeks vs untreated controls
Procedure, shortened: as §2

POAAN: Poa annua [6] = experiment: Pre-emergence herbicide efficacy at 1280 g/ha, POAAN; conditions: visual scoring after about 3 weeks vs untreated controls
Procedure, shortened: as §2

STEME: Stellaria media [7] = experiment: Post-emergence herbicidal efficacy at 1280 g/ha, STEME; conditions: visual rating about 3 weeks after treatment vs untreated controls
Procedure, shortened: (§3)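 Read-out is visual percent activity relative to untreated controls (100% = plants died, 0% = no effect), scored about 3 weeks after treatment. Application was post-emergence at the one-leaf stage in the greenhouse, as WP or EC in water with 0.5% additive at 600 L/ha.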

VERPE: Veronica persica [8] = experiment: Post-emergence herbicidal efficacy at 1280 g/ha, VERPE; conditions: visual rating about 3 weeks after treatment vs untreated controls
Procedure, shortened: as §3

[9] = tested on: ECHCG: Echinochloa crus-galli; experiment: Pre-emergence herbicide efficacy at 1280 g/ha, ECHCG; conditions: visual scoring after about 3 weeks vs untreated controls
Procedure, shortened: as §2

KCHSC: Kochia scoparia [10] = experiment: Post-emergence herbicidal efficacy at 1280 g/ha, KCHSC; conditions: visual rating about 3 weeks after treatment vs untreated controls
Procedure, shortened: as §3

STEME: Stellaria media [11] = experiment: Pre-emergence herbicide efficacy at 1280 g/ha, STEME; conditions: visual scoring vs untreated controls
Procedure, shortened: as §2

[12] = tested on: AMARE: Amaranthus retroflexus; experiment: Post-emergence herbicidal efficacy at 1280 g/ha, AMARE; conditions: rated visually after about 3 weeks vs untreated controls, 100% = plants have died, 0% = like control plants
Procedure, shortened: as §3

KCHSC: Kochia scoparia [13] = experiment: Pre-emergence herbicide efficacy at 1280 g/ha, KCHSC; conditions: visual scoring after about 3 weeks vs untreated controls
Procedure, shortened: as §2

[14] = tested on: AMARE: Amaranthus retroflexus; experiment: Pre-emergence herbicide efficacy at 1280 g/ha, AMARE; conditions: visual scoring after about 3 weeks vs untreated controls
Procedure, shortened: as §2

[15] = tested on: ABUTH: Abutilon theophrasti; experiment: Post-emergence herbicidal efficacy at 1280 g/ha, ABUTH; conditions: rated visually after about 3 weeks vs untreated controls, 100% = plants have died, 0% = like control plants
Procedure, shortened: as §3

SETVI: Setaria viridis [16] = experiment: Pre-emergence herbicide efficacy at 1280 g/ha, SETVI; conditions: visual scoring vs untreated controls
Procedure, shortened: as §2

SETVI: Setaria viridis [17] = experiment: Post-emergence herbicidal efficacy at 1280 g/ha, SETVI; conditions: visual rating about 3 weeks after treatment vs untreated controls
Procedure, shortened: as §3

POAAN: Poa annua [18] = experiment: Post-emergence herbicidal efficacy at 1280 g/ha, POAAN; conditions: visual rating about 3 weeks after treatment vs untreated controls
Procedure, shortened: as §3

[19] = tested on: ABUTH: Abutilon theophrasti; experiment: Pre-emergence herbicide efficacy at 1280 g/ha, ABUTH; conditions: visual scoring after about 3 weeks vs untreated controls
Procedure, shortened: as §2

[20] = tested on: DIGSA: Digitaria sanguinalis; experiment: Post-emergence herbicidal efficacy at 1280 g/ha, DIGSA; conditions: rated visually after about 3 weeks vs untreated controls, 100% = plants have died, 0% = like control plants
Protocol: Seeds of mono- and dicotyledonous weed plants were placed in plastic pots in sandy loam soil (doubly sown with in each case one species of mono- or dicotyledonous weed plants per pot), covered with soil and cultivated in a greenhouse under controlled growth conditions. 2 to 3 weeks after sowing, the test plants were treated at the one-leaf stage. The compounds of the invention, formulated in the form of wettable powders (WP) or as emulsion concentrates (EC), were applied to the green parts of the plants as aqueous suspension or emulsion with addition of 0.5% additive at a water application rate equivalent to 600 litres per hectare. After the test plants had been kept in the greenhouse under optimum growth conditions for about 3 weeks, the activity of the preparations was rated visually in comparison to untreated controls. For example, 100% activity=the plants have died, 0% activity=like control plants. Tables A1 to A12 below show the effects of selected compounds of the general formula (I) according to Table 1 on various harmful plants and at an application rate corresponding to 1280 g/ha, which were obtained by the trial procedure specified above.

Row | Structure (SMILES) | Post-emergence efficacy against AMARE [1] [%] | Post-emergence efficacy against VERPE (VERPE: Veronica persica [2]) [%] | Pre-emergence efficacy against MATIN [3] [%] | Pre-emergence efficacy against VERPE in % (VERPE: Veronica persica [4]) [%] | Pre-emergence efficacy against DIGSA [5] [%] | Pre-emergence efficacy against POAAN (POAAN: Poa annua [6]) [%] | Post-emergence efficacy against STEME (STEME: Stellaria media [7]) [%] | Post-emergence efficacy against VERPE (VERPE: Veronica persica [8]) [%] | Pre-emergence efficacy against ECHCG [9] [%] | Post-emergence efficacy against KCHSC (KCHSC: Kochia scoparia [10]) [%] | Pre-emergence efficacy against STEME in % (STEME: Stellaria media [11]) [%] | Post-emergence efficacy at 1280 g/ha against AMARE in % [12] [%] | Pre-emergence efficacy against KCHSC (KCHSC: Kochia scoparia [13]) [%] | Pre-emergence efficacy against AMARE [14] [%] | Post-emergence efficacy at 1280 g/ha against ABUTH in % [15] [%] | Pre-emergence efficacy against SETVI in % (SETVI: Setaria viridis [16]) [%] | Post-emergence efficacy against SETVI (SETVI: Setaria viridis [17]) [%] | Post-emergence efficacy against POAAN (POAAN: Poa annua [18]) [%] | Pre-emergence efficacy against ABUTH [19] [%] | Post-emergence efficacy at 1280 g/ha against DIGSA in % [20] [%]
1 | O=S(=O)(CCCC(F)(F)F)Oc1c(F)cccc1Cc1ncc(Br)cn1 [Example 1-186] | 90 | 90 |  |  |  |  |  |  |  |  |  |  |  |  |  |  |  |  |  | 
2 | O=S(=O)(CCCCl)Oc1c(F)cccc1Cc1ncc(Br)cn1 [Example 1-192] |  | 80 |  |  |  |  |  |  |  |  |  |  |  |  |  |  |  |  |  | 
3 | Fc1cnc(Oc2ccccc2Cc2ccc(Cl)cn2)nc1 [Example 1-100] |  |  | 100 | 100 | 100 | 100 | 90 | 100 | 100 | 100 | 100 | 100 | 100 | 100 | 90 | 100 | 90 | 100 | 100 | 
4 | Fc1cnc(Cc2ccccc2-n2cc(C(F)(F)F)cn2)nc1 [Example 1-129] |  |  | 100 | 90 | 90 | 90 | 100 | 90 | 100 | 100 | 100 | 100 | 90 | 100 | 100 | 90 |  | 100 | 100 | 
5 | O=S(=O)(CCCCl)Oc1c(F)cccc1Cc1ncc(Cl)cn1 [Example 1-193] | 90 | 90 |  |  |  |  |  |  |  |  |  |  |  |  |  |  |  |  |  | 
6 | Fc1ccc(Cc2ccccc2Oc2ncc(Cl)cn2)nc1 [Example 1-92] |  |  | 100 | 100 | 100 | 100 | 100 | 100 | 100 | 100 | 100 | 100 | 100 | 100 | 90 | 100 | 100 | 100 | 100 | 90
